Laboratory results as given in PMC8865417, “Receptor Interaction Profiles of 4-Alkoxy-3,5-Dimethoxy-Phenethylamines (Mescaline Derivatives) and Related Amphetamines” (Frontiers in Pharmacology, 2022).

What was measured:
[1] = target: T1, h5-HT2A receptor (Homo sapiens, UniProt P28223); assay: Radioligand binding at h5-HT2A receptor ([3H]ketanserin); conditions: for Selectivity 5-HT2A vs. 5-HT2C / Selectivity 5-HT2A vs. 5-HT1A: binding ratio; for Ki: h5-HT2A Receptor binding Ki ± SD, [3H]ketanserin, mean ± SD
T1 construct: expressed in transfected cells; host or cells: HEK 293 cells (membrane preparations)

[2] = target: T2, human TAAR1 (Homo sapiens, UniProt Q96RJ0); assay: Activity at the human TAAR1 (cAMP assay, HEK 293 cells); format: cell-based
T2 construct: expressed in transfected cells; host or cells: HEK 293 cells
T2 sequence (Q96RJ0 1-339): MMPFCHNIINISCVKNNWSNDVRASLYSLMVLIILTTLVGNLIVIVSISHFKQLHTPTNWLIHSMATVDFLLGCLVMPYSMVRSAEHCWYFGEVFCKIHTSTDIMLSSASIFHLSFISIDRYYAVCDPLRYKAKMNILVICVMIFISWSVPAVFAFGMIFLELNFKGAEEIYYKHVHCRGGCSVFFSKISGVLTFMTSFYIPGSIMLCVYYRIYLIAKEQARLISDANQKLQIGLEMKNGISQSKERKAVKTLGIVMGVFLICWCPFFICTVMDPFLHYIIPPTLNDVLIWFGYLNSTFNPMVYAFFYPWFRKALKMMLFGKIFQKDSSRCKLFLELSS
Procedure: Once 80–90% confluency was reached, the cells were collected by removing the medium, washing with PBS and then adding 5 ml of trypsin/EDTA solution for 5 min at 37°C. Next, 45 ml of medium was added and the entire mixture was transferred into a falcon tube. The tube was then centrifuged at room temperature for 3 min at 900 revolutions per minute (rpm). Next, the supernatant was removed in order to resuspend the remaining cell pellet in fresh medium to 5 × 10^5 cells/ml. Hundred microliter of the cells was transferred into a 96-well plate ([…]; BIOCOAT 6640, Becton Dickinson, Allschwil, Switzerland) and incubated for 20 h at 37°C.
For the cAMP assay, the aspirated medium was replaced with 50 μl PBS without Ca^2+ and Mg^2+ ions. Using snap inversion, the PBS was extracted and the plate was gently tapped against tissue. Next, 90 μl of Krebs-Ringer Bicarbonate buffer (KRB, Sigma-Aldrich) containing 1 mM IBMX was added and incubated for 60 min at 37°C and 5% CO2/95% air. Each test compound was examined in duplicate in a concentration range between 300 pM and 30 μM. A standard curve with a range of cAMP concentrations (0.13 nM–10 μM) was created for each 96-well plate. Each experiment was accompanied with a reference plate that included RO5256390, β-phenylethylamine and p-tyramine. The cells were exposed to either 30 μl of compound solution, 30 μl of β-phenylethylamine (as maximal response), or a basal control in PBS (containing 1 mM IBMX) for 40 min at 37°C. Next, under forceful shaking using black lids, the cells were exposed to 50 μl of 3× detection mix solution (composed of Ru-cAMP Alexa700 anti-cAMP antibody and lysis buffer) for 120 min at room temperature. Using the NanoScan reader (Innovate Optische Messtechnik, Berlin, Germany; 456 nm excitation wavelength; 630 and 700 nm emission wavelengths), the fluorescence was examined and the FRET signal was determined using the following equation; FRET (700 nm)- P × FRET (630 nm), where P = Ru (700 nm)/Ru (630 nm).

[3] = target: T3, hα2A adrenergic receptor (Homo sapiens, UniProt P08913); assay: Radioligand binding at hα2A adrenergic receptor ([3H]rauwolscine)
T3 construct: expressed in transfected cells; host or cells: Chinese hamster lung cells (membrane preparations)
T3 sequence (P08913 1-465): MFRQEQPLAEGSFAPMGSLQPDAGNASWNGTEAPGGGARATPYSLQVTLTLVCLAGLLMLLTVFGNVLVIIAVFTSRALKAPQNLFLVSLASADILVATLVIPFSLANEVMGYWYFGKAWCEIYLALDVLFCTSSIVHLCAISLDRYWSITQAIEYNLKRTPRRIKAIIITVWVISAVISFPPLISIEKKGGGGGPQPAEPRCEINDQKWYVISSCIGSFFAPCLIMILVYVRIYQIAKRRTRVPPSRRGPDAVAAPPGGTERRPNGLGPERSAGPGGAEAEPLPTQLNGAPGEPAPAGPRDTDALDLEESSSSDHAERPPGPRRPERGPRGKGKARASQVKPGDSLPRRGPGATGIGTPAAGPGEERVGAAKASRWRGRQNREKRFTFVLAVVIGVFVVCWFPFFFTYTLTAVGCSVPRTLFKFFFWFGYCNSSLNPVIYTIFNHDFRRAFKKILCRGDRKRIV

[4] = target: T4, dopaminergic hD2 receptor (Homo sapiens, UniProt P14416); assay: Radioligand binding at dopaminergic hD2 receptor ([3H]spiperone)
T4 construct: expressed in transfected cells; host or cells: HEK 293 cells (membrane preparations)

[5] = target: T5, hNET (Homo sapiens, UniProt P23975); assay: Radioligand binding at hNET (N-methyl-[3H]nisoxetine)
T5 construct: expressed in transfected cells; host or cells: HEK 293 cells (membrane preparations)

[6] = target: T6, hSERT (Homo sapiens, UniProt P31645); assay: Radioligand binding at hSERT ([3H]citalopram)
T6 construct: expressed in transfected cells; host or cells: HEK 293 cells (membrane preparations)

[7] = tested on: head twitch response; design: method as in Halberstadt et al. (2019); conditions: ref Halberstadt et al. (2019); cited from earlier work
[8] = tested on: humans; conditions: ref Trachsel 2012; cited from earlier work

T5 sequence (P23975 whole entry): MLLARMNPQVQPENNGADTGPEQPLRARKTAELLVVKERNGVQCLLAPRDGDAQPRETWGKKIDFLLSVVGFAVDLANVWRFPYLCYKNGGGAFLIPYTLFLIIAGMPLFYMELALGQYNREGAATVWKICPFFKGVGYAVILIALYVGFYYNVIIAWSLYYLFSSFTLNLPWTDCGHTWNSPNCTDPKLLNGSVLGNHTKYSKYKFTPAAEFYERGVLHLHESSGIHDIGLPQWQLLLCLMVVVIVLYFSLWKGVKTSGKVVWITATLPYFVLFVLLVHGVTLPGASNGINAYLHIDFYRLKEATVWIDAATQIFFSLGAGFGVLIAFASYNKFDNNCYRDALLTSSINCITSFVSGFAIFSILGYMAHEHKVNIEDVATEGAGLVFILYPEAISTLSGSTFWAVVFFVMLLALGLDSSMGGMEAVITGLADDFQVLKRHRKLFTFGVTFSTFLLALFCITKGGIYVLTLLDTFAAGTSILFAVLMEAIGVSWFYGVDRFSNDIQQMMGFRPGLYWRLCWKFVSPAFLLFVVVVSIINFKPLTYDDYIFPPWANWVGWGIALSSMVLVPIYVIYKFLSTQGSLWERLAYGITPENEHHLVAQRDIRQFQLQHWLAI
T1 sequence (P28223 whole entry): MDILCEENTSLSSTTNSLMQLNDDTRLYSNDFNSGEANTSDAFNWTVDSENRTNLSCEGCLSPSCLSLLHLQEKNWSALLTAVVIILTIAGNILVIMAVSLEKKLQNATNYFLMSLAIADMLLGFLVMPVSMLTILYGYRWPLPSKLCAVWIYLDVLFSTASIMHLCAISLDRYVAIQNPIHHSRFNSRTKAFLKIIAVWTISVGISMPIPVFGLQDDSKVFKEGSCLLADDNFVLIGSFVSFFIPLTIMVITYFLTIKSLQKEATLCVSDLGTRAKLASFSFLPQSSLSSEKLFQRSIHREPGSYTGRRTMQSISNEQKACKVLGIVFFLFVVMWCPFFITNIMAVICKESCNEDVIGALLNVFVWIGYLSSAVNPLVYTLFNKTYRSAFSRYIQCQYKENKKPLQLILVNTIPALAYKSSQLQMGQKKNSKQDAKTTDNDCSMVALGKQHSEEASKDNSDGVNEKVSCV
T4 sequence (P14416 whole entry): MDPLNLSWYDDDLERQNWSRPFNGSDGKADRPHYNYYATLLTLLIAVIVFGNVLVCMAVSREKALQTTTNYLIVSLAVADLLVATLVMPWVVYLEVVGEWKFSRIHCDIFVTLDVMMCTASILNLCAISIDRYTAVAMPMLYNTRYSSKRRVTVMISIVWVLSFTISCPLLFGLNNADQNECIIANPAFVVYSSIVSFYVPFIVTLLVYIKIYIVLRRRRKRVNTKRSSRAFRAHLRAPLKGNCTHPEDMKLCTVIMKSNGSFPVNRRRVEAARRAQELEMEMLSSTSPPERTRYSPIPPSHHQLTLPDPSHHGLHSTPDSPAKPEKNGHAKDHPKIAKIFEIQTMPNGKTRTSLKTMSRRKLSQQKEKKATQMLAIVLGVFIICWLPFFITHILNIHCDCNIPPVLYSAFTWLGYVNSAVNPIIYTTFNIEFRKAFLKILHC
T6 sequence (P31645 whole entry): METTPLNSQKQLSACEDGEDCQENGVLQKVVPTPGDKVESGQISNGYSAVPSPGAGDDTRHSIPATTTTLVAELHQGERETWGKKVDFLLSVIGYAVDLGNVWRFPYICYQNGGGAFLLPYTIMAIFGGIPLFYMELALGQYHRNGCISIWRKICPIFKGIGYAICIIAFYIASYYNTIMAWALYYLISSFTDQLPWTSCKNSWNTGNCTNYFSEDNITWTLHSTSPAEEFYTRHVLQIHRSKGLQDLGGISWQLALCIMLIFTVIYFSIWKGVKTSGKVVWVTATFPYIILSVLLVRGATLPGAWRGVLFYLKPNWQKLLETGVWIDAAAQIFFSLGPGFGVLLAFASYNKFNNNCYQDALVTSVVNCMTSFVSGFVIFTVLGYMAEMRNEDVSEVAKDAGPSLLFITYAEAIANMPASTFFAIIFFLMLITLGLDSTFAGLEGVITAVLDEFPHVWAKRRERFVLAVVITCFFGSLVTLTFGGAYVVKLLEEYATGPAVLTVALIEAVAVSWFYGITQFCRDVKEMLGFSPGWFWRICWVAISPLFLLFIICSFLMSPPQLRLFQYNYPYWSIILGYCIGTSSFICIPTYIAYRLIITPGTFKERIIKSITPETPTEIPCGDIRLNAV

## COc1cc(CCN)cc(OC)c1OCC(F)(F)F [compound 18, 3,5-dimethoxy-4-(2,2,2-trifluoroethoxy)phenethylamine]
[1]
  Selectivity 5-HT2A vs. 5-HT2C: 0.9
  Ki: 1.3 µM
[2]
  EC50: > 10 µM
[3]
  Ki: 2.3 µM
[4]
  Ki: > 6.3 µM
[5]
  Ki: > 9.7 µM
[6]
  Ki: > 7.5 µM

## COc1cc(CCN)cc(OC)c1OCCC(F)(F)F [compound 26, 3,5-dimethoxy-4-(3,3,3-trifluoropropoxy)phenethylamine]
[1]
  Selectivity 5-HT2A vs. 5-HT1A: >1
  Selectivity 5-HT2A vs. 5-HT2C: 1.1
  Ki: 5 µM
[2]
  EC50: > 10 µM
[3]
  Ki: 2.3 µM
[4]
  Ki: > 6.3 µM
[5]
  Ki: > 9.7 µM
[6]
  Ki: > 7.5 µM

## C=C(C)COc1c(OC)cc(CCN)cc1OC [compound 32, 3,5-dimethoxy-4-methallyloxyphenethylamine]
[1]
  Selectivity 5-HT2A vs. 5-HT1A: 9.3
  Selectivity 5-HT2A vs. 5-HT2C: 0.9
  Ki: 0.55 ± 0.19 µM
[1]; ratio of Ki values
  Higher affinity at the 5-HT2A receptor compared to mescaline (5): 17- to 63 fold
[2]
  EC50: > 10 µM
[3]
  Ki: 1.5 µM
[4]
  Ki: > 6.3 µM
[5]
  Ki: > 9.7 µM
[6]
  Ki: > 7.5 µM

## CCCOc1c(OC)cc(CC(C)N)cc1OC (stereo not drawn) [compound 28, 3,5-dimethoxy-4-propyloxyamphetamine]
[1]
  Selectivity 5-HT2A vs. 5-HT2C: 2.0
  Ki: 1 µM
[1]; ratio of Ki values
  Increase in 5-HT2A receptor affinity compared with TMA (6): ≥ 10 fold
[2]
  EC50: > 10 µM
[3]
  Ki: 4.6 µM
[4]
  Ki: > 6.3 µM
[5]
  Ki: > 9.7 µM
[6]
  Ki: > 7.5 µM
[7]
  Head twitch response: induced a head twitch response with almost identical potency

## COc1cc(CCN)cc(OC)c1OCCCF [compound 25, 3,5-dimethoxy-4-(3-fluoropropoxy)-phenethylamine]
[1]
  Selectivity 5-HT2A vs. 5-HT1A: <1
  Selectivity 5-HT2A vs. 5-HT2C: 0.6
  Ki: 9.3 µM
[2]
  EC50: > 10 µM
[3]
  Ki: 2.9 µM
[4]
  Ki: > 6.3 µM
[5]
  Ki: > 9.7 µM
[6]
  Ki: > 7.5 µM

## COc1cc(CCN)cc(OC)c1OCc1ccccc1 [compound 33, 4-benzyloxy-3,5-dimethoxyphenethylamine]
[1]
  Selectivity 5-HT2A vs. 5-HT1A: 29
  Selectivity 5-HT2A vs. 5-HT2C: 2.9
  Ki: 0.15 ± 0.01 µM
[1]; ratio of Ki values
  Higher affinity at the 5-HT2A receptor compared to mescaline (5): 17- to 63 fold
[2]
  EC50: > 10 µM
[3]
  Ki: 2.3 µM
[4]
  Ki: > 6.3 µM
[5]
  Ki: > 9.7 µM
[6]
  Ki: > 7.5 µM

## COc1cc(CCN)cc(OC)c1OC(F)(F)F [compound 13, 4-trifluoromethoxy-3,5-dimethoxyphenethylamine]
[1]
  Selectivity 5-HT2A vs. 5-HT1A: 7.9
  Selectivity 5-HT2A vs. 5-HT2C: 1.0
  Ki: 0.28 ± 0.1 µM
[1]; ratio of Ki values
  Higher affinity at the 5-HT2A receptor compared to mescaline (5): 17- to 63 fold
[2]
  EC50: > 10 µM
[3]
  Ki: 0.45 ± 0.06 µM
[4]
  Ki: > 6.3 µM
[5]
  Ki: > 9.7 µM
[6]
  Ki: > 7.5 µM
[8]
  Increase in human potency compared to mescaline (5): > 9 fold

## COc1cc(CC(C)N)cc(OC)c1OC(F)F (stereo not drawn) [compound 14, 4-difluoromethoxy-3,5-dimethoxyamphetamine]
[1]
  Selectivity 5-HT2A vs. 5-HT2C: 2.6
  Ki: 1.4 µM
[2]
  EC50: > 10 µM
[3]
  Ki: 2.6 µM
[4]
  Ki: > 6.3 µM
[5]
  Ki: > 9.7 µM
[6]
  Ki: > 7.5 µM

## COc1cc(CCN)cc(OC)c1OC1CC1 [compound 29, 4-cyclopropyloxy-3,5-dimethoxyphenethylamine]
[1]
  Selectivity 5-HT2A vs. 5-HT1A: 0.9
  Selectivity 5-HT2A vs. 5-HT2C: 1.3
  Ki: 4.3 µM
[2]
  EC50: > 10 µM
[3]
  Ki: 1.2 µM
[4]
  Ki: > 6.3 µM
[5]
  Ki: > 9.7 µM
[6]
  Ki: > 7.5 µM

## COc1cc(CCN)cc(OC)c1OC(CF)CF [compound 23, 3,5-dimethoxy-4-(1,3-difluoroprop-2-yloxy)phenethylamine]
[1]
  Ki: > 12 µM
[2]
  EC50: > 10 µM
[3]
  Ki: 2.7 µM
[4]
  Ki: > 6.3 µM
[5]
  Ki: > 9.7 µM
[6]
  Ki: > 7.5 µM
